Experimental data taken from US9491943B2, “Bioengineering strain for production of novel microorganism-originated fungicides and uses thereof” (SHANGHAI JIAOTONG UNIVERSITY, priority 2011, dated 2016).

Tested on: rhizoctonia solani
Test: Antifungal rate (inhibition of hypha growth) on potato glucose culture medium plates
Assay type: cell-based
Conditions: 16 mg/L in potato glucose culture medium, 28° C.

NC(=O)c1cccc2nc3ccccc3nc12 [phenazine-1-carboxamide]
antifungal activity (antifungal rate) against rhizoctonia solani (acidity (pH) 4.0): 65% | antifungal activity (antifungal rate) against rhizoctonia solani (acidity (pH) 5.0): 69% | antifungal activity (antifungal rate) against rhizoctonia solani (acidity (pH) 6.0): 73.6% | antifungal activity (antifungal rate) against rhizoctonia solani (acidity (pH) 7.0): 80.1% | antifungal activity (antifungal rate) against rhizoctonia solani (acidity (pH) 8.0): 90%
